Experimental findings from US20120004282A1, “RNA Interference Mediated Inhibition of the Intercellular Adhesion Molecule 1 (ICAM-1) Gene Expression Using Short Interfering Nucleic Acid (siNA)” (Merck Sharp & Dohme Corp,, priority 2009, published 2012) are described below.

[invAb] = inverted abasic unit; m = 2'-O-methyl; r = 2'-OH (RNA); f = 2'-fluoro

In this data set the test system is ICAM-1 mRNA. Put plainly: ICAM-1 mRNA knock-down in transfected Calu-1 cells (Taqman RT-PCR). Particulars: Calu-1 cells, 10 nM siNA, 24 hrs post-transfection, mean ± S.D., relative to non-targeting control. In kind it is cell-based, human. The procedure: Calu-1 (human; ATCC cat# HTB-54): Cells were cultured at 37° C. in the presence of 5% CO2 and grown in McCoy's 5a medium supplemented with fetal bovine serum at a final concentration of 10% and 100 μg/mL of streptomycin and 100 U/mL penicillin.
All transfections were performed using RNAiMax (Invitrogen Cat# 13778-150) as per the manufacturer's instructions.
Calu-1 cells were plated in all wells of a tissue-culture treated, 96-well plate at final counts of 5,000 cells/well in 100 μL of appropriate culture media. Cells were cultured for 24 hours after plating at 37° C. in the presence of 5% CO2.
After 24 hours, complexes containing siNA and RNAiMax were created as follows. A solution of RNAiMax diluted 33-fold in OPTI-MEM was prepared. In parallel, solutions of the siNAs for testing were prepared to a final concentration of 120 nM in OPTI-MEM. After incubation of RNAiMax/OPTI-MEM solution at room temperature for 5 min, an equal volume of the siNA solution and the RNAiMax solution were added together for each of the siNAs. […] This solution was incubated at room temperature for 20 minutes. After incubation, 20 uL of the solution was added to each of the relevant wells. The final concentration of siNA in each well was 10 nM and the final volume of RNAiMax in each well was 0.3 uL.
The time of incubation with the RNAiMax-siNA complexes was 24 hours, unless otherwise indicated. There was no change in media between the transfection and harvesting of the cells unless otherwise indicated.
Dose response curves were carried out in a similar fashion in 96-well plates, while maintaining a constant amount of RNAiMax in each transfection.
RNA was extracted from a 96-well plate using the TaqMan® Gene Expression Cells-to-CT™ Kit (Cat# 4399002) with a modified protocol. Briefly, a 60 uL (1 plate) or 110 uL (2 plates) of the Lysis Solution with DNase I was dispensed into each well of the Lysis Buffer Plate (twin.tec full skirt plate). The lysis buffer and stop plates were stored at 4° C. until the cells were washed.
The plate was spun at 1100 rpm for 5 minutes. The culture medium was aspirated and discarded from the wells of the culture plate. The lysis was performed automatically using a BioMek FX instrument and method. After the Biomek method was completed, the lysis plate was incubated for 2 min. at room temperature. The lysis plate can be stored for 2 hours at 4° C., or at −20° C. or −80° C. for two months.
Each well of the reverse transcription plate required 10 uL of 2× reverse transcriptase Buffer, 1 uL of 20× reverse transcription enzyme and 2 uL of nuclease-free water. The reverse transcription master mix was prepared by mixing 2× reverse transcription buffer, 20× reverse transcription enzyme mix, and nuclease-free water. 13 uL of the reverse transcription master mix was dispensed into each well of the reverse transcription plate (semi-skirted). A separate reverse transcription plate was prepared for each cell plate. The plate was loaded onto a Biomek NX or Biomek FX Dual-96 and the Biomek method was run. The program is programmed to automatically added 7 uL of lysate from the cell lysis procedure described above into each well of the reverse transcription plate. The plate is sealed and spun on a centrifuge (1000 rpm for 30 seconds) to settle the contents to the bottom of the reverse transcription plate. The plate is placed in a thermocycler at 37° C. for 60 min, 95° C. for 5 min, and 4° C. until the plate is removed from the thermocycler. Upon removal, if not used immediately, the plate was frozen at −20° C.
A series of probes and primers were used to detect the various mRNA transcripts of the genes of ICAM-1 and ICAM-2 in human cell lines (see Table 2). All the Taqman probes and primers for the experiments here-in described were supplied as pre-validated sets by Applied Biosystems, Inc., (see Table 2). The assays were performed on an ABI 7900 instrument, according to the manufacturer's instructions. […]
Consider “48724-DC: siNA duplex, ICAM-1 target site 560 (h); sense B cuGAGcAAuGuGcAAGAAG TTB; antisense CUUcuuGcAcAuuGcucAcUU (sense CUGAGCAAUGUGCAAGAAGTT; antisense CUUCUUGCACAUUGCUCACUU; sense: DNA at AGT, 2'-fluoro at CU, [invAb] at 5' end, 3' end, backbone not given here; antisense: sugars from the 5' end rrrfffmfmfmffmfffmfmm, backbone not given here)”, for which the “% KD Human” value is given as 34 ± 8%.

“48727-DC: siNA duplex, ICAM-1 target site 1521 (h); sense B GGGAuuGuccGGGAAAcuG TTB; antisense CAGuuucccGGAcAAucccUU (sense GGGAUUGUCCGGGAAACUGTT; antisense CAGUUUCCCGGACAAUCCCUU; sense: DNA at AGT, 2'-fluoro at CU, [invAb] at 5' end, 3' end, backbone not given here; antisense: sugars from the 5' end rrrffffffmmmfmmffffmm, backbone not given here)”: the “% KD Human” value came to 23 ± 6%.

For the substance “48697-DC: siNA duplex, ICAM-1 target site 1641 (m); sense B GcucAGGAGGAGGccAuAA TTB; antisense UUAuGGccuccuccuGAGcUU (sense GCUCAGGAGGAGGCCAUAATT; antisense UUAUGGCCUCCUCCUGAGCUU; sense: DNA at AGT, 2'-fluoro at CU, [invAb] at 5' end, 3' end, backbone not given here; antisense: sugars from the 5' end rrrfmmfffffffffmmmfmm, backbone not given here)”, the “% KD Human” value is 14 ± 11%.

As to “48706-DC: siNA duplex, ICAM-1 target site 250 (m); sense B GcuuGGAGAcucAGuGGcu TTB; antisense AGCcAcuGAGucuccAAGcUU (sense GCUUGGAGACUCAGUGGCUTT; antisense AGCCACUGAGUCUCCAAGCUU; sense: DNA at AGT, 2'-fluoro at CU, [invAb] at 5' end, 3' end, backbone not given here; antisense: sugars from the 5' end rrrfmffmmmfffffmmmfmm, backbone not given here)”, the “% KD Human” value was 23 ± 31%.

For the substance “48710-DC: siNA duplex, ICAM-1 target site 1574 (m); sense B ccucGuGAuGGcAGccucu TTB; antisense AGAGGcuGccAucAcGAGGUU (sense CCUCGUGAUGGCAGCCUCUTT; antisense AGAGGCUGCCAUCACGAGGUU; sense: DNA at AGT, 2'-fluoro at CU, [invAb] at 5' end, 3' end, backbone not given here; antisense: sugars from the 5' end rrrmmffmffmffmfmmmmmm, backbone not given here)”, the “% KD Human” value came to 25 ± 5%.

Regarding “48713-DC: siNA duplex, ICAM-1 target site 709 (m); sense B GGAcuuucGAucuuccAGc TTB; antisense GCUGGAAGAucGAAAGuccUU (sense GGACUUUCGAUCUUCCAGCTT; antisense GCUGGAAGAUCGAAAGUCCUU; sense: DNA at AGT, 2'-fluoro at CU, [invAb] at 5' end, 3' end, backbone not given here; antisense: sugars from the 5' end rrrmmmmmmffmmmmmfffmm, backbone not given here)”, the “% KD Human” value turned out to be 36 ± 17%.

On to “48719-DC: siNA duplex, ICAM-1 target site 1230 (h); sense B cAGuGAccAucuAcAGcuu TTB; antisense AAGcuGuAGAuGGucAcuGUU (sense CAGUGACCAUCUACAGCUUTT; antisense AAGCUGUAGAUGGUCACUGUU; sense: DNA at AGT, 2'-fluoro at CU, [invAb] at 5' end, 3' end, backbone not given here; antisense: sugars from the 5' end rrrffmfmmmfmmffmffmmm, backbone not given here)”, for which the “% KD Human” value is 71 ± 9%.

Consider “48726-DC: siNA duplex, ICAM-1 target site 1217 (h); sense B GAGAcAcuGcAGAcAGuGA TTB; antisense UCAcuGucuGcAGuGucucUU (sense GAGACACUGCAGACAGUGATT; antisense UCACUGUCUGCAGUGUCUCUU; sense: DNA at AGT, 2'-fluoro at CU, [invAb] at 5' end, 3' end, backbone not given here; antisense: sugars from the 5' end rrrffmfffmfmmfmffffmm, backbone not given here)”, for which the “% KD Human” value turned out to be 64 ± 16%.

In the case of “48714-DC: siNA duplex, ICAM-1 target site 1089 (m); sense B GGGucGAAGGuGGuucuuc TTB; antisense GAAGAAccAccuucGAcccUU (sense GGGUCGAAGGUGGUUCUUCTT; antisense GAAGAACCACCUUCGACCCUU; sense: DNA at AGT, 2'-fluoro at CU, [invAb] at 5' end, 3' end, backbone not given here; antisense: sugars from the 5' end rrrmmmffmfffffmmfffmm, backbone not given here)”, the “% KD Human” value worked out at 48 ± 22%.

Turning to “48700-DC: siNA duplex, ICAM-1 target site 1549 (m); sense B uGccAGuAcuGcuGGucAu TTB; antisense AUGAccAGcAGuAcuGGcAUU (sense UGCCAGUACUGCUGGUCAUTT; antisense AUGACCAGCAGUACUGGCAUU; sense: DNA at AGT, 2'-fluoro at CU, [invAb] at 5' end, 3' end, backbone not given here; antisense: sugars from the 5' end rrrmffmmfmmfmffmmfmmm, backbone not given here)”, the “% KD Human” value stood at 13 ± 5%.

As for “29289-DC: siNA duplex, ICAM-1 target site 2152 (h); sense B GGAGcAAGAcucAAGAcAu TTB; antisense AUGucuuGAGucuuGcuccUU (sense GGAGCAAGACUCAAGACAUTT; antisense AUGUCUUGAGUCUUGCUCCUU; sense: DNA at AGT, 2'-fluoro at CU, [invAb] at 5' end, 3' end, backbone not given here; antisense: sugars from the 5' end rrrffffmmmffffmffffmm, backbone not given here)”, the “% KD Human” value is listed as 78 ± 15%.

“29291-DC: siNA duplex, ICAM-1 target site 2120 (h); sense B GAucuGuAGucAcAuGAcu TTB; antisense AGUcAuGuGAcuAcAGAucUU (sense GAUCUGUAGUCACAUGACUTT; antisense AGUCAUGUGACUACAGAUCUU; sense: DNA at AGT, 2'-fluoro at CU, [invAb] at 5' end, 3' end, backbone not given here; antisense: sugars from the 5' end rrrfmfmfmmffmfmmmffmm, backbone not given here)”: the “% KD Human” value amounted to 84 ± 7%.

As to “48716-DC: siNA duplex, ICAM-1 target site 368 (m); sense B GcAGucGuccGcuuccGcu TTB; antisense AGCGGAAGcGGAcGAcuGcUU (sense GCAGUCGUCCGCUUCCGCUTT; antisense AGCGGAAGCGGACGACUGCUU; sense: DNA at AGT, 2'-fluoro at CU, [invAb] at 5' end, 3' end, backbone not given here; antisense: sugars from the 5' end rrrmmmmmfmmmfmmffmfmm, backbone not given here)”, the “% KD Human” value amounted to 22 ± 6%.
